Assay results reported in patent US5407911A, “Parathyroid hormone-containing emulsion for nasal administration” (Asahi Kasei Kogyo Kabushiki Kaisha, priority 1991, dated 1995).
One block for each compound: values may come before it.

Experiments:
Assay type in all cases: physicochemical
[1] = Stabilities of the emulsions according to the added concentrations of the azacycloalkane derivative (Referential Experiment 2); conditions: for Observation after 3 days standing / Observation after 7 days standing: room temperature
Procedure: Each 5 ml of a 1% (W/V) solution preliminarily prepared by dissolving dipotassium glycyrrhizate in distilled water was poured in each of eight 10 ml size test tubes, and thereto was added 1-[2-(decylthio)ethyl] azacyclopentane-2-one selected from the azacycloalkane derivatives so as to make a concentration ranging from 0 to 10%. Then the mixture was agitated for 1 minute using Biomixer (NIHON SEIKI SEISAKUSHO) at 15,000 rpm to prepare each emulsion. The state of dispersion just after the preparation, or after 3 days or 7 days standing at room temperature was observed.

[2] = State of dispersion of emulsions of 1-[2-(decylthio)ethyl]azacyclopentan-2-one made with three emulsifying agents (Referential Experiment 1)
Procedure: Using 1-[2-(decylthio)ethyl]azacyclopentan-2-one selected from the azacycloalkane derivatives, and three emulsifying agents hereinbelow, emulsifiabilities and stabilities of the emulsions were examined.
(§1) […] The mixutre was agitated under 15,000 rpm for 1 minute by Biomixer (NIHON SEIKI SEISAKUSHO) to prepare each emulsion. The state of dispersion just after the preparation and after 3 days standing at room temperature was observed. The turbidity just after the preparation was measured by absorbance at 650 nm, and used as the index of emulsifiability.

[3] = Turbidity just after preparation (absorbance at 650 nm) as index of emulsifiability (Referential Experiment 1); conditions: for Turbidity (650 nm): just after preparation
Procedure: as §1

[4] = azacycloalkane 10.0 % in 1% dipotassium glycyrrhizate

Observation just after preparation ([1]; azacycloalkane 0.01 % in 1% dipotassium glycyrrhizate): Colorless clear
Observation after 3 days standing ([1]; azacycloalkane 0.01 %): Colorless clear
Observation after 7 days standing ([1]; azacycloalkane 0.01 %): Colorless clear
Observation just after preparation ([1]; azacycloalkane 0.1 % in 1% dipotassium glycyrrhizate): Colorless clear
Observation after 3 days standing ([1]; azacycloalkane 0.1 %): Colorless clear
Observation after 7 days standing ([1]; azacycloalkane 0.1 %): Colorless clear
Observation just after preparation ([1]; azacycloalkane 0.5 % in 1% dipotassium glycyrrhizate): Colorless clear
Observation after 3 days standing ([1]; azacycloalkane 0.5 %): Colorless clear
Observation after 7 days standing ([1]; azacycloalkane 0.5 %): Colorless clear
Observation just after preparation ([1]; azacycloalkane 1.0 % in 1% dipotassium glycyrrhizate): White clear
Observation after 3 days standing ([1]; azacycloalkane 1.0 %): White clear
Observation after 7 days standing ([1]; azacycloalkane 1.0 %): White clear
Observation just after preparation ([1]; azacycloalkane 2.0 % in 1% dipotassium glycyrrhizate): White clear
Observation after 3 days standing ([1]; azacycloalkane 2.0 %): White clear
Observation after 7 days standing ([1]; azacycloalkane 2.0 %): White clear
Observation just after preparation ([1]; azacycloalkane 5.0 % in 1% dipotassium glycyrrhizate): White emulsified
Observation after 3 days standing ([1]; azacycloalkane 5.0 %): White emulsified
Observation after 7 days standing ([1]; azacycloalkane 5.0 %): White emulsified
Observation just after preparation [1, 4]: White emulsified
Observation after 3 days standing [1, 4]: White emulsified
Observation after 7 days standing [1, 4]: White emulsified
SMILES: CCCCCCCCCCSCCN1CCCC1=O [1-[2-(decylthio)ethyl]azacyclopentane-2-one]
Emulsification and emulsion stability ([1]; azacycloalkane 0.01% to 10% at 1% dipotassium glycyrrhizate): good emulsification and gave stable emulsion

Just after preparation (state of dispersion) ([2]; emulsifying agent 0.5 %): White clear
Just after preparation (state of dispersion) ([2]; emulsifying agent 1.0 %): White clear
Just after preparation (state of dispersion) ([2]; emulsifying agent 2.0 %): White clear
Just after preparation (state of dispersion) ([2]; emulsifying agent 3.0 %): White clear
Emulsification ([2]; emulsifying agent at 0.1-5 %): good emulsification
Dissolution ([2]; emulsifying agent at 4-5 %): full dissolution
Turbidity (650 nm) ([3]; emulsifying agent 0.1 %): 1.284
Turbidity (650 nm) ([3]; emulsifying agent 0.5 %): 0.459
Turbidity (650 nm) ([3]; emulsifying agent 1.0 %): 0.437
Turbidity (650 nm) ([3]; emulsifying agent 2.0 %): 0.405
Turbidity (650 nm) ([3]; emulsifying agent 3.0 %): 0.346
Turbidity (650 nm) ([3]; emulsifying agent 4.0 %): 0.006
Turbidity (650 nm) ([3]; emulsifying agent 5.0 %): 0.006
Turbidity as index of emulsifiability, compared with HCO-60 and polysorbate 80 ([3]; same concentration level): stronger emulsifiability
SMILES: CC1(C)[C@@H](O[C@H]2O[C@H](C(=O)[O-])[C@@H](O)[C@H](O)[C@H]2O[C@@H]2O[C@H](C(=O)[O-])[C@@H](O)[C@H](O)[C@H]2O)CC[C@]2(C)[C@H]3C(=O)C=C4[C@@H]5C[C@@](C)(C(=O)O)CC[C@]5(C)CC[C@@]4(C)[C@]3(C)CC[C@@H]12.[K+].[K+] [dipotassium glycyrrhizate]
